The values below come from patent US20210040089A1, “KRAS MUTANT PROTEIN INHIBITORS” (Jacobio Pharmaceuticals Co., Ltd., priority 2019, published 2021).

The target of one assay is T1, KRAS G12C (Homo sapiens, UniProt P01116, G12C).
T1 construct: HIS-KRAS (G12C, aa 2-185, Sino biological); purchased Sino biological
The assay can be described thus: SOS1 catalyzed nucleotide exchange assay (TR-FRET). Format: biochemical. Conditions: GDP-loaded HIS-KRAS(G12C), 1 hour pre-incubation with compound. The protocol: 1. SOS1 Catalyzed Nucleotide Exchange Assay
HIS-KRAS (G12C, aa 2-185, Sino biological) was diluted to […] EDTA buffer (20 mM HEPES, pH 7.4, 50 mM NaCl, 10 mM EDA, 0.01% (v/v) Tween-20) and incubated for 30 min at 25° C. The EDTA pretreated HIS-KRAS(G12C) was diluted to 12 nM in assay buffer (25 mM HEPES, pH 7.4, 120 mM NaCl, 5 mM MgCl2, 1 mM DTI, 0.01% (v/v) Tween 20, 0.1% (w/v) BSA) containing 120 nM GDP(Sigma) and Mab Anti 6HIS-Tb cryptate Gold(Cisbio) and incubated for 1 hour at 25° C. to prepare GDP-loaded HIS-KRAS(G12C). The GDP-loaded HIS-KRAS(G12C) was pre-incubation with diluted compounds in a 384-well plate (Greiner) for 1 hour, then purified SOS 1ExD (Flag tag, aa 564-1049) and BODIPY™FL GTP (Invitrogen) were added to the assay wells (Final concentration: 3 nM HIS-KRAS(G12C), 2 μM SOS1 ExD, 80 nM BODIPY™FL GTP, 21 ng/mL MAb Anti 6HS-Tb cryptate Gold) and incubated for 4 hours at 25° C. TR-FRET signals were then read on Tecan Spark multimode microplate reader. The parameters were F486: Excitation 340 (35) nm, Emission 486 (10) nm, Lag time 100 μs, Integration time […]; F515: Excitation 340 (35) nm, Emission 515 (10) nm, Lag time […], Integration time 200 s. TR-FRET ratios for each individual wells were calculated by equation: TR-FRET ratio=(Signal F515/Signal F486)*10000. Then the data were analyzed using a 4-parameter logistic model to calculate IC50 values.
A general note: TR-FRET usually uses a lanthanide donor and a delayed reading to cut background.

Assay [1] deals with NCI-H358 cells express KRAS G12C. As to the kind of experiment: Cell growth inhibition assay (CCK-8). Format: cell-based. The following applies: Homo sapiens, 144 h; NCI-H358, 6 days incubation. On the procedure: 3. Cell Growth inhibition assay
NCI-H358 cells express KRAS G12C were cultured in RPMI 1640 medium (Gibco) containing 10% fetal bovine serum (Gibco). Cells in culture medium were plated in 96-well plates at a concentration of 3000 cells/well ([…]) and allowed to attach overnight. The next day, compounds were diluted in culture medium and added to the plates. After 6 days incubation in a 37° C./5% CO2 cell incubator, the medium was removed, then 100 μL of 1×CCK-8 (MCE) in culture medium was added in each well. The plates were incubated 1.5-2 hours in a 37° C./5% CO2 cell incubator. OD450 signals were read on Tecan Spark multimode microplate reader and analyzed using a 4-parameter logistic model to calculate IC50 values.

Assay [2] has as its system Phospho-ERK1/2(THR202/TYR204) in NCI-H358 cells express KRAS G12C. As to the kind of experiment: Phospho-ERK1/2(THR202/TYR204) HTRF assay. Format: cell-based. Conditions: Homo sapiens; NCI-H358, 2 hours incubation; read-out: p-ERK inhibition in NCI-H358 IC50. The protocol: NCI-H358 cells express KRAS G12C were cultured in RPMI 1640 medium (Gibco) containing 10% fetal bovine serum (Gibco). Cells in culture medium were plated in 96-well plates at a concentration of 40,000 cells/well and allowed to attach overnight. The next day, culture medium was removed and added compounds diluted in assay medium (RPMI 1640, 0.1% EFBS). After 2 hours incubation in a 37° C./5% CO2 cell incubator, the assay medium was removed, then 50 μL of 1× supplemented lysis buffer (Cisbio) was added and the plates were incubated at 25° C. for 45 min with shaking. 10 μL of cell lysates from the 96-well plates were transferred to a 384-well plate (Greiner) containing 2.5 µL/well HTRF® pre-mixed antibodies (Cisbio 64AERPEH).
Incubate 4 hours at 25° C. and then read HTRF signals on Tecan Spark multimode microplate reader. The data were analyzed using a 4-parameter logistic model to calculate IC50 values.

The structures appear in SMILES notation.

T1 sequence (P01116 2-185 isoform P01116-2 G12C): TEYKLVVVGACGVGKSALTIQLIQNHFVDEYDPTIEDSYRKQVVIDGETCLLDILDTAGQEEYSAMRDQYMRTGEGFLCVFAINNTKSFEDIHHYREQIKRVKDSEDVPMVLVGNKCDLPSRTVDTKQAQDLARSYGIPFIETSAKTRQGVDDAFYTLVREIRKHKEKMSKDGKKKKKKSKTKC

By IC50 is commonly meant the midpoint of a concentration-inhibition curve. Consider `C=CC(=O)N1CCN(c2nc(OCC3CCCC(N(C)C)C3)nc3c2CCN(c2cccc4ccccc24)C3)CC1CC#N` (stereo not drawn) [Compound 15, 2-(1-acryloyl-4-(2-((3-(dimethylamino)cyclohexyl)methoxy)-7-(naphthalen-1-yl)-5,6,7,8-tetrahydropyrido[3,4-d]pyrimidin-4-yl)piperazin-2-yl)acetonitrile], for which the figures for the IC50 (on KRAS G12C; in assay [1]; in assay [2]) were 333 nM, 497 nM and 876 nM, respectively.

As for `C=CC(=O)N1CCN(c2nc(OCC3(CN4CCCC4)CCC3)nc3c2CCN(c2cccc4cccc(C)c24)C3)CC1CC#N` (stereo not drawn) [Compound 45, 2-(1-acryloyl-4-(7-(8-methylnaphthalen-1-yl)-2-((1-(pyrrolidin-1-ylmethyl)cyclobutyl)methoxy)-5,6,7,8-tetrahydropyrido[3,4-d]pyrimidin-4-yl)piperazin-2-yl)acetonitrile], the IC50 at KRAS G12C amounted to 13.3 nM; in assay [1], 590 nM; in assay [2] it was 216 nM.

For the compound `C=C(F)C(=O)N1CCN(c2nc(OCC3(CN4CCC4)CC3)nc3c2CCN(c2cccc4cccc(C)c24)C3)CC1CC#N` (stereo not drawn) [Compound 73, 2-(4-(2-((1-(azetidin-1-ylmethyl)cyclopropyl)methoxy)-7-(8-methylnaphthalen-1-yl)-5,6,7,8-tetrahydropyrido[3,4-d]pyrimidin-4-yl)-1-(2-fluoroacryloyl)piperazin-2-yl)acetonitrile], the IC50 on KRAS G12C came to 17 nM; in assay [1] it was 883 nM; in assay [2] it was 963 nM.

For `C=CC(=O)N1CCN(c2nc(OCC3CCCC(N(C)C)C3)nc3c2CCN(c2cccc4cccc(C)c24)C3)CC1CC#N` (stereo not drawn) [Compound 5, 2-(1-acryloyl-4-(2-((3-(dimethylamino)cyclohexyl)methoxy)-7-(8-methylnaphthalen-1-yl)-5,6,7,8-tetrahydropyrido[3,4-d]pyrimidin-4-yl)piperazin-2-yl)acetonitrile], the results for the IC50 (on KRAS G12C; in assay [1]; in assay [2]) were 19.6 nM, 174 nM and 330 nM, respectively.

On to `C=CC(=O)N1CCN(c2nc(OCC3(N(C)C)CC3)nc3c2CCN(c2cccc4cccc(C)c24)C3)CC1CC#N` (stereo not drawn) [Compound 20, 2-(1-acryloyl-4-(2-((1-(dimethylamino)cyclopropyl)methoxy)-7-(8-methylnaphthalen-1-yl)-5,6,7,8-tetrahydropyrido[3,4-d]pyrimidin-4-yl)piperazin-2-yl)acetonitrile], for which the figures for the IC50 (at KRAS G12C; in assay [1]; in assay [2]) were 19.4 nM, 102 nM and 127 nM, respectively.

For `C=CC(=O)N1CCN(c2nc(OCC3(CN4CCN(C)CC4)CC3)nc3c2CCN(c2cccc4cccc(C)c24)C3)CC1CC#N` (stereo not drawn) [Compound 58, 2-(1-acryloyl-4-(7-(8-methylnaphthalen-1-yl)-2-((1-((4-methylpiperazin-1-yl)methyl)cyclopropyl)methoxy)-5,6,7,8-tetrahydropyrido[3,4-d]pyrimidin-4-yl)piperazin-2-yl)acetonitrile], the values for the IC50 (at KRAS G12C; in assay [1]; in assay [2]) were 1.47 nM, 36.9 nM and 44.3 nM, respectively.

For `COC/C=C/C(=O)N1CCN(c2nc(OCC3(CN(C)C)CC3)nc3c2CCN(c2cccc4cccc(C)c24)C3)CC1CC#N` (stereo not drawn) [Compound 70, (E)-2-(4-(2-((1-((dimethylamino)methyl)cyclopropyl)methoxy)-7-(8-methylnaphthalen-1-yl)-5,6,7,8-tetrahydropyrido[3,4-d]pyrimidin-4-yl)-1-(4-methoxybut-2-enoyl)piperazin-2-yl)acetonitrile], the values for the IC50 (at KRAS G12C; in assay [1]; in assay [2]) were 3.41 nM, 195 nM and 172 nM, respectively.

Regarding `C=CC(=O)N1CCN(c2nc(OCC3(CN(C)C)CC3)nc3c2CCN(c2cccc4cccc(C)c24)C3)CC1CC#N` (stereo not drawn) [Compound 47, 2-(1-acryloyl-4-(2-((1-((dimethylamino)methyl)cyclopropyl)methoxy)-7-(8-methylnaphthalen-1-yl)-5,6,7,8-tetrahydropyrido[3,4-d]pyrimidin-4-yl)piperazin-2-yl)acetonitrile], the IC50 on KRAS G12C is 1.16 nM; in assay [1] it was 26.4 nM; in assay [2] it was 23.7 nM.

Take `C=CC(=O)N1CCN(c2nc(OCC3(CN(C)C)CC3)nc3c2CCN(c2cccc4ncsc24)C3)CC1CC#N` (stereo not drawn) [Compound 54, 2-(1-acryloyl-4-(7-(benzo[d]thiazol-7-yl)-2-((1-((dimethylamino)methyl)cyclopropyl)methoxy)-5,6,7,8-tetrahydropyrido[3,4-d]pyrimidin-4-yl)piperazin-2-yl)acetonitrile]: the IC50 on KRAS G12C is 82.8 nM; in assay [1], over 1000 nM; in assay [2], over 500 nM.

On to `C=CC(=O)N1CCN(c2nc(OCC3(CN4CCCC4)CC3)nc3c2CCN(c2cccc(F)c2C(F)(F)F)C3)CC1CC#N` (stereo not drawn) [Compound 34, 2-(1-acryloyl-4-(7-(3-fluoro-2-(trifluoromethyl)phenyl)-2-((1-(pyrrolidin-1-ylmethyl)cyclopropyl)methoxy)-5,6,7,8-tetrahydropyrido[3,4-d]pyrimidin-4-yl)piperazin-2-yl)acetonitrile], for which the IC50 on KRAS G12C was found to be 15.9 nM; in assay [1], 78.6 nM; in assay [2], 54.5 nM.

Regarding `C=CC(=O)N1CCN(c2nc(OCC3(CN(C)CCN(C)C)CC3)nc3c2CCN(c2cccc4cccc(C)c24)C3)CC1CC#N` (stereo not drawn) [Compound 64, 2-(1-acryloyl-4-(2-((1-(((2-(dimethylamino)ethyl)(methyl)amino)methyl)cyclopropyl)methoxy)-7-(8-methylnaphthalen-1-yl)-5,6,7,8-tetrahydropyrido[3,4-d]pyrimidin-4-yl)piperazin-2-yl)acetonitrile], the concentration for half-maximal inhibition (IC50) came to 1.69 nM on KRAS G12C, 74.5 nM in assay [1] and 124 nM in assay [2].

As to `C=CC(=O)N1CCN(c2nc(OCC3CCCC3N(C)C)nc3c2CCN(c2cccc4cccc(C)c24)C3)CC1CC#N` (stereo not drawn) [Compound 23, 2-(1-acryloyl-4-(2-((2-(dimethylamino)cyclopentyl)methoxy)-7-(8-methylnaphthalen-1-yl)-5,6,7,8-tetrahydropyrido[3,4-d]pyrimidin-4-yl)piperazin-2-yl)acetonitrile], the IC50 on KRAS G12C amounted to 9.45 nM; in assay [1], 66.8 nM; in assay [2], 112 nM.

Consider `C=CC(=O)N1CCN(c2nc(OCC3(CN(C)C)CC3)nc3c2CCN(c2cccc4sccc24)C3)CC1CC#N` (stereo not drawn) [Compound 51, 2-(1-acryloyl-4-(7-(benzo[b]thiophen-4-yl)-2-((1-((dimethylamino)methyl)cyclopropyl)methoxy)-5,6,7,8-tetrahydropyrido[3,4-d]pyrimidin-4-yl)piperazin-2-yl)acetonitrile], for which the values for the IC50 (on KRAS G12C; in assay [1]; in assay [2]) were 3.28 nM, 99.9 nM and 77.1 nM, respectively.

On to `C=CC(=O)N1CCN(c2nc(OCC3(CN(C)C)CC3)nc3c2CCN(c2cccc(C)c2C)C3)CC1CC#N` (stereo not drawn) [Compound 48, 2-(1-acryloyl-4-(2-((1-((dimethylamino)methyl)cyclopropyl)methoxy)-7-(2,3-dimethylphenyl)-5,6,7,8-tetrahydropyrido[3,4-d]pyrimidin-4-yl)piperazin-2-yl)acetonitrile], for which the IC50 at KRAS G12C is 3.31 nM; in assay [1], 94.9 nM; in assay [2], 66 nM.
